# Tests used:
# [1] = Cytotoxicity against rat ASK cells assessed as reduction in cell viability by SRB assay; assay type: functional, cell-based
# [2] = Cytotoxicity against human K213 cells assessed as reduction in cell viability by SRB assay; assay type: functional, cell-based
# [3] = Cytotoxicity against human K055 cells assessed as reduction in cell viability by SRB assay; assay type: functional, cell-based
# HT-29 = assay: Cytotoxicity against human HT-29 cells assessed as reduction in cell viability by SRB assay; assay type: functional, cell-based
# A549 = assay: Cytotoxicity against human A549 cells assessed as reduction in cell viability by SRB assay; assay type: functional, cell-based
# KB = assay: Cytotoxicity against human KB cells assessed as reduction in cell viability by SRB assay; assay type: functional, cell-based
# [4] = Cytotoxicity against human P388 cells assessed as reduction in cell viability by SRB assay; assay type: functional, cell-based
# MCF7 [5] = assay: Cytotoxicity against human MCF7 cells assessed as reduction in cell viability by SRB assay; assay type: functional, cell-based
# MCF7 [6] = assay: Potency index, ratio of andrographolide IC50 to test compound IC50 for cytotoxicity against human MCF7 cells; assay type: functional
Compound,IC50 [1],IC50 [2],IC50 [3],IC50 (HT-29),IC50 (A549),IC50 (KB),IC50 [4],IC50 (MCF7 [5]),Ratio IC50 (MCF7 [6])
C=C1[C@@H](OC(C)=O)C[C@@H]2[C@](C)(CO[Si](C)(C)C(C)(C)C)[C@H](OC(C)=O)CC[C@@]2(C)[C@@H]1C[C@@H](Nc1cccc(OC)c1)C1=CCOC1=O,39.7 µM,40.1 µM,44 µM,> 50 µM,17.2 µM,45.2 µM,27.8 µM,28.1 µM,
C=C1[C@@H](OC(C)=O)C[C@@H]2[C@](C)(CO[Si](C)(C)C(C)(C)C)[C@H](OC(C)=O)CC[C@@]2(C)[C@@H]1C[C@@H](Nc1cccc2ccccc12)C1=CCOC1=O,6.33 µM,15.3 µM,6.72 µM,15 µM,4.97 µM,8.93 µM,5.74 µM,5.77 µM,
C=C1[C@@H](OC(C)=O)C[C@@H]2[C@](C)(COC=O)[C@H](OC(C)=O)CC[C@@]2(C)[C@@H]1C[C@@H](Nc1ccc(C(=O)O)cc1)C1=CCOC1=O,> 50 µM,> 50 µM,48.3 µM,37.2 µM,> 50 µM,> 50 µM,22.2 µM,41.6 µM,
C=C1[C@@H](OC(C)=O)C[C@@H]2[C@](C)(COC=O)[C@H](OC(C)=O)CC[C@@]2(C)[C@@H]1C[C@@H](Nc1cccc(F)c1)C1=CCOC1=O,35.8 µM,27.2 µM,29.2 µM,9.41 µM,23.2 µM,28.6 µM,5.53 µM,14.1 µM,
C=C1[C@@H](OC(C)=O)C[C@@H]2[C@](C)(CO[Si](C)(C)C(C)(C)C)[C@H](OC(C)=O)CC[C@@]2(C)[C@@H]1C[C@H](C1=CCOC1=O)N1CCOCC1,26.3 µM,,28.3 µM,37.6 µM,24.8 µM,35.7 µM,20.4 µM,31.6 µM,
C=C1[C@@H](OC(C)=O)C[C@@H]2[C@](C)(COC=O)[C@H](OC(C)=O)CC[C@@]2(C)[C@@H]1C[C@@H](Nc1ccc(OC)cc1)C1=CCOC1=O,> 50 µM,40.9 µM,33.2 µM,25.4 µM,28.9 µM,32.7 µM,7.9 µM,24.2 µM,
C=C1[C@@H](OC(C)=O)C[C@@H]2[C@](C)(CO[Si](C)(C)C(C)(C)C)[C@H](OC(C)=O)CC[C@@]2(C)[C@@H]1C[C@@H](Nc1ccccc1F)C1=CCOC1=O,3.69 µM,5.45 µM,5.19 µM,3.71 µM,3.19 µM,4.74 µM,3.14 µM,2.93 µM,7
C=C1[C@@H](OC(C)=O)C[C@@H]2[C@](C)(COC=O)[C@H](OC(C)=O)CC[C@@]2(C)[C@@H]1C[C@@H](Nc1ccccc1F)C1=CCOC1=O,31.6 µM,31 µM,30.3 µM,9.76 µM,23.6 µM,29 µM,5.97 µM,16.4 µM,
C=C1[C@@H](OC(C)=O)C[C@@H]2[C@](C)(COC=O)[C@H](OC(C)=O)CC[C@@]2(C)[C@@H]1C[C@@H](Nc1ccccc1)C1=CCOC1=O,41 µM,39.8 µM,33.2 µM,28.8 µM,25.8 µM,32.1 µM,7.84 µM,26.2 µM,
C=C1[C@@H](OC(C)=O)C[C@@H]2[C@](C)(CO[Si](C)(C)C(C)(C)C)[C@H](OC(C)=O)CC[C@@]2(C)[C@@H]1C[C@@H](Nc1ccccc1C(=O)O)C1=CCOC1=O,4.31 µM,5.91 µM,5.64 µM,5.34 µM,4.89 µM,6.05 µM,4.31 µM,4.46 µM,7
C=C1[C@@H](OC(C)=O)C[C@@H]2[C@](C)(COC=O)[C@H](OC(C)=O)CC[C@@]2(C)[C@@H]1C[C@@H](Nc1ccc(OC)c(OC)c1)C1=CCOC1=O,> 50 µM,> 50 µM,48.2 µM,42.8 µM,> 50 µM,> 50 µM,25.8 µM,> 50 µM,
C=C1CC[C@@H]2[C@](C)(CO)[C@H](O)CC[C@@]2(C)[C@@H]1C/C=C1/C(=O)OC[C@H]1O [ANDROGRAPHOLIDE],45.4 µM,33.9 µM,30.2 µM,10.8 µM,12.2 µM,41.5 µM,6.91 µM,29.1 µM,
Cc1c2ccncc2c(C)c2c1[nH]c1ccccc12 [ELLIPTECINE],2.42 µM,2.11 µM,2.04 µM,2.59 µM,2.13 µM,2.2 µM,1.87 µM,2.18 µM,
